Test results from patent US8916565B2, “Pyrrolopyrazine-spirocyclic piperidine amides as modulators of ion channels” (priority 2011, dated 2014).

target: human NaV subtype, like NaV 1.7 (Homo sapiens, UniProt Q15858); assay: E-VIPR optical membrane potential assay with electrical stimulation; format: cell-based; details: active against one or more sodium channels; Table 3 does not name the assay or NaV subtype; read-out: Binned Activity Data (IC50)
Sequence (Q15858 whole entry): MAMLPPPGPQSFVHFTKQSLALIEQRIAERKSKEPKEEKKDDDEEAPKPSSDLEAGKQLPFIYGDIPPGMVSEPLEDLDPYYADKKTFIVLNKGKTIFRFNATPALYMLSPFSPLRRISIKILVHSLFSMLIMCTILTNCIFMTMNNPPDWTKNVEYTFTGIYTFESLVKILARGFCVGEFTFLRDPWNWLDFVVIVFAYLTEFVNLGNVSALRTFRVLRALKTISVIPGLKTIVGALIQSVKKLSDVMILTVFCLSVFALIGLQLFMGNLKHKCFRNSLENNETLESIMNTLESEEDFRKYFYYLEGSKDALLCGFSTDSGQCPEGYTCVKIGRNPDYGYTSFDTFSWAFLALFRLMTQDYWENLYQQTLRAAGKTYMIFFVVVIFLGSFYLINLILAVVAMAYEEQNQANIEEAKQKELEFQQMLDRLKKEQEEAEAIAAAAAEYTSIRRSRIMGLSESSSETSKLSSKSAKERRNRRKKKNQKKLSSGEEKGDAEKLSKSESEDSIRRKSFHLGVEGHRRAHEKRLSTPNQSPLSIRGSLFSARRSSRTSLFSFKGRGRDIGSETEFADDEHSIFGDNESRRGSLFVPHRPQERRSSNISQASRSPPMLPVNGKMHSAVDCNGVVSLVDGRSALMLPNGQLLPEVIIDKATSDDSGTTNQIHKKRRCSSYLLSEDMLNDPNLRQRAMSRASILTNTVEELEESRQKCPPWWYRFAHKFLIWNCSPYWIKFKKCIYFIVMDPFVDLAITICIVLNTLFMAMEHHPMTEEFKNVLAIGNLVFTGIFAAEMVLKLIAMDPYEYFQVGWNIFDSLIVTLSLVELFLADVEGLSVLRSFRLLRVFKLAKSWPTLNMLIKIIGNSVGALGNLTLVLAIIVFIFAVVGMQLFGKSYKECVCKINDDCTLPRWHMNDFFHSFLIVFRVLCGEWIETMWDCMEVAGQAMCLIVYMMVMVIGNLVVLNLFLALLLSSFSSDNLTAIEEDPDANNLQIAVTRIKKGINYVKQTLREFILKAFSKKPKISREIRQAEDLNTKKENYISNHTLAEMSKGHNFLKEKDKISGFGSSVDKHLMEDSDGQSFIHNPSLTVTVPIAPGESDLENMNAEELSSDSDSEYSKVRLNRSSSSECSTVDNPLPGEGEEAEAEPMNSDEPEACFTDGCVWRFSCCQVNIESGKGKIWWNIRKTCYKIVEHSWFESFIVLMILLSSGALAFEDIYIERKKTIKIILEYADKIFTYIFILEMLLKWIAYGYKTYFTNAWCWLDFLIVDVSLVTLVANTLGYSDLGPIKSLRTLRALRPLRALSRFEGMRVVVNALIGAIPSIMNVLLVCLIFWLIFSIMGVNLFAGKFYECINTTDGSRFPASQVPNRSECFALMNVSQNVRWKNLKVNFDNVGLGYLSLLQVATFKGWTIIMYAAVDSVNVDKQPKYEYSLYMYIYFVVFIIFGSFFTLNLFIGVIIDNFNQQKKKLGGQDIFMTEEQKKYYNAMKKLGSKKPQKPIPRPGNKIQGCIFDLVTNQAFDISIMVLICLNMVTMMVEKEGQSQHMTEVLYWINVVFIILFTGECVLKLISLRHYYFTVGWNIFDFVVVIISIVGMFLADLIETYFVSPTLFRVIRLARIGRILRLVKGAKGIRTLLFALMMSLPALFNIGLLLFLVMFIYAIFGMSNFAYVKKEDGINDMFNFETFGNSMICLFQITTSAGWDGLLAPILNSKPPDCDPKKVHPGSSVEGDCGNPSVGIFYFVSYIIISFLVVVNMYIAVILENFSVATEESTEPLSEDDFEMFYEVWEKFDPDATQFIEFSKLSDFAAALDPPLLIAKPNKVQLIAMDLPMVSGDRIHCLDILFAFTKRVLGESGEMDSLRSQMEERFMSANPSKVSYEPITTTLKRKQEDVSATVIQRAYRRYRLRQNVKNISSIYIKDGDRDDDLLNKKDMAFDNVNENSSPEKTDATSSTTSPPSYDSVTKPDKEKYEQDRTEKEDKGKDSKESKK

| SMILES | IC50 |
| --- | --- |
| CC(C)Oc1ccc(C(=O)N2CCC3(CC2)c2c(C#N)cc(C(F)(F)F)n2CCN3C)cc1Cl [Compound 548] | ≤ 2000 nM |
| COc1cc(C(=O)N2CCC3(CC2)NC(C)(C)Cn2c(C(=O)C(F)(F)F)ccc23)ccc1OCCC(C)C [Compound 686] | ≤ 2000 nM |
| Cc1cc(C(=O)N2CCC3(CC2)c2ccc(C(F)(F)F)n2CCN3CCO)ccc1OC(C)C [Compound 156] | ≤ 2000 nM |
| CN1CCn2c(C(=O)C(F)(F)F)ccc2C12CCN(C(=O)c1ccc(C(C)(C)C)cc1)CC2 [Compound 12] | ≤ 2000 nM |
| C=C(C)Oc1ccc(C(=O)N2CCC3(CC2)c2ccc(C(F)(F)F)n2CCN3C)cc1OC [Compound 751] | ≤ 2000 nM |
| CC(=O)c1ccc2n1CCN(C)C21CCN(C(=O)c2ccc(C(C)(C)O)c(C)c2)CC1 [Compound 456] | 2000 to 5000 nM |
| COc1ccc(C(=O)N2CCC3(CC2)NCC(C)n2c(C(=O)C(F)(F)F)ccc23)cc1C (stereo not shown) [Compound 595] | ≤ 2000 nM |
| CC(C)Oc1ccc(C(=O)N2CCC3(CC2)c2ccc(C(F)(F)F)n2C[C@@H](C)N3C)c(F)c1 [Compound 749] | 2000 to 5000 nM |
| Cc1cc(C(=O)N2CCC3(CC2)c2c(C#N)cc(C(F)(F)F)n2CCN3C)ccc1OC(C)C [Compound 526] | ≤ 2000 nM |
| CCC(c1ccc(F)cc1)n1cc(C(=O)N2CCC3(CC2)c2ccc(C(F)(F)F)n2CCN3C)nn1 (stereo not shown) [Compound 293] | > 5000 nM |
| CN1CCn2c(C(=O)C(F)(F)F)ccc2C12CCN(C(=O)c1ccc(C(C)(C)O)c(F)c1)CC2 [Compound 575] | ≤ 2000 nM |
| COc1ccc(C(=O)N2CCC3(CC2)c2ccc(C(=O)C(F)(F)F)n2C(C)CN3C)nc1C (stereo not shown) [Compound 15] | ≤ 2000 nM |
| CN1CCn2c(C(=O)C(F)(F)F)ccc2C12CCN(C(=O)c1ccc(S(=O)(=O)N(C)c3nccs3)cc1)CC2 [Compound 752] | ≤ 2000 nM |
| COc1cc(C(=O)N2CCC3(CC2)c2ccc(C(=O)C(F)(F)F)n2C(C)CN3C)ccc1OCCOC(F)(F)F (stereo not shown) [Compound 114] | ≤ 2000 nM |
| CC1(C)Cn2c(C(=O)C(F)(F)F)ccc2C2(CCN(C(=O)c3ccc(S(=O)(=O)C4CC4)cc3)CC2)N1 [Compound 197] | ≤ 2000 nM |
| CC(C)Oc1ccc(C(=O)N2CCC3(CC2)c2ccc(C(=O)C(F)(F)F)n2CCN3C)cc1C(F)(F)F [Compound 676] | ≤ 2000 nM |
| CCOc1ccc(C(=O)N2CCC3(CC2)c2ccc(C(=O)C(F)(F)F)n2CCN3C)cc1OCC [Compound 510] | ≤ 2000 nM |
| CN1CCn2c(C(=O)C3CC3)ccc2C12CCN(C(=O)c1ccc(O)c(Cl)c1)CC2 [Compound 31] | 2000 to 5000 nM |
| CN1CCn2c(Cl)ccc2C12CCN(C(=O)c1ccc(C3CC3)cc1)CC2 [Compound 400] | > 5000 nM |
| COc1nc(C(=O)N2CCC3(CC2)c2ccc(C(=O)C(F)(F)F)n2CCN3C)ccc1OC(C)C [Compound 357] | ≤ 2000 nM |
| CNS(=O)(=O)c1ccc(C(=O)N2CCC3(CC2)c2c(F)cc(C(F)(F)F)n2CCN3C)cc1 [Compound 415] | ≤ 2000 nM |
| COc1ccc(C(=O)N2CCC3(CC2)c2ccc(C(=O)C(F)(F)F)n2CCN3C)cc1Cl [Compound 697] | ≤ 2000 nM |
| CC(C)Oc1ccc(C(=O)N2CCC3(CC2)NCCn2c(C(F)(F)F)ccc23)cc1 [Compound 273] | 2000 to 5000 nM |
| CCOc1cc(C(=O)N2CCC3(CC2)c2ccc(C(F)(F)F)n2CCN3C)ccc1OC [Compound 730] | ≤ 2000 nM |
| COc1cc(C(=O)N2CCC3(CC2)c2c(Cl)cc(C(F)(F)F)n2CCN3C)ccc1OC(C)C [Compound 9] | ≤ 2000 nM |
| COc1cc(C(=O)N2CCC3(CC2)c2ccc(C(F)(F)F)n2CCN3C)cc(F)c1OC(C)C [Compound 544] | ≤ 2000 nM |

| SMILES | IC50 |
| --- | --- |
| COc1ccc(C(=O)N2CCC3(CC2)c2ccc(C(=O)C4CC4)n2CCN3C)cc1C(F)(F)F [Compound 132] | ≤ 2000 nM |
| CN1CCn2c(C(F)(F)F)ccc2C12CCN(C(=O)c1cc3occc3n1C)CC2 [Compound 365] | ≤ 2000 nM |
| CC(C)Oc1ccc(C(=O)N2CCC3(CC2)c2ccc(Cl)n2CCN3C)cc1 [Compound 696] | > 5000 nM |
| COc1cc(C(=O)N2CCC3(CC2)c2ccc(C(=O)C(F)(F)F)n2CCN3C)ccc1COCCC(F)(F)F [Compound 288] | ≤ 2000 nM |
| CC1(C)Cn2c(C(=O)C(F)(F)F)ccc2C2(CCN(C(=O)c3ccc(-c4ccccc4)c(F)c3)CC2)N1 [Compound 576] | ≤ 2000 nM |
| CC(=O)c1cc2n(c1)CC(C)(C)NC21CCN(C(=O)c2ccc(OC(C)C)c(C(F)(F)F)c2)CC1 [Compound 139] | > 5000 nM |
| CC(C)Oc1ccc(C(=O)N2CCC3(CC2)NC(C)(C)Cn2c(C(=O)C(F)(F)F)ccc23)cc1Cl [Compound 270] | ≤ 2000 nM |
| Cc1cc(C(=O)N2CCC3(CC2)c2ccc(C(F)(F)F)n2CCN3C2CC2)ccc1OC(C)C [Compound 333] | ≤ 2000 nM |
| CC1(C)CNC2(CCN(C(=O)c3ccc(S(=O)(=O)NC4CC4)cc3)CC2)c2ccc(C(F)(F)F)n21 [Compound 76] | > 5000 nM |
| CC(=O)c1ccc2n1CC(C)(C)NC21CCN(C(=O)c2ccc(C3CCCCC3)cc2)CC1 [Compound 643] | ≤ 2000 nM |
| COc1ccc(C(=O)N2CCC3(CC2)NC(C)(C)Cn2c(C(=O)C(F)(F)F)ccc23)nc1C [Compound 490] | ≤ 2000 nM |
| CC(=O)c1cc2n(c1)CC(C)(C)NC21CCN(C(=O)c2ccc(C3CCCCC3)cc2)CC1 [Compound 344] | 2000 to 5000 nM |
| CN1CCn2c(C(=O)C(F)(F)F)ccc2C12CCN(C(=O)c1ccc(COCC(F)(F)F)cc1)CC2 [Compound 553] | ≤ 2000 nM |
| Cc1cc(C(=O)N2CCC3(CC2)c2ccc(C(F)(F)F)n2CCN3C(=O)N(C)C)ccc1C(C)(C)O [Compound 634] | > 5000 nM |
| CC(C)CCOc1ccc(C(=O)N2CCC3(CC2)c2ccc(C(=O)C(F)(F)F)n2CCN3C)cc1 [Compound 143] | ≤ 2000 nM |
| C[C@H]1Cn2c(C(=O)C(F)(F)F)ccc2C2(CCN(C(=O)c3ccc(S(=O)(=O)NC4CC4)cc3)CC2)N1C [Compound 669] | ≤ 2000 nM |
| Cc1cc(C(=O)N2CCC3(CC2)c2ccc(C(=O)C(F)(F)F)n2C(C)CN3C)ccc1C(C)(C)O (stereo not shown) [Compound 311] | ≤ 2000 nM |
| COc1cc(C(=O)N2CCC3(CC2)c2ccc(C(=O)C(F)(F)F)n2CCN3C)ccc1OC(C)(C)C [Compound 90] | ≤ 2000 nM |
| CN1CCn2c(C(F)(F)F)ccc2C12CCN(C(=O)c1ccccc1OC(F)(F)F)CC2 [Compound 272] | 2000 to 5000 nM |
| CC[C@@H](C)Oc1ccc(C(=O)N2CCC3(CC2)NCCn2c(C(F)(F)F)ccc23)cc1OC [Compound 745] | ≤ 2000 nM |
| CN1CCn2c(C(F)(F)F)ccc2C12CCN(C(=O)c1ccc(S(=O)(=O)C3CC3)cc1)CC2 [Compound 257] | ≤ 2000 nM |
| CCS(=O)(=O)c1ccc(C(=O)N2CCC3(CC2)c2ccc(C(=O)C(C)(C)C)n2CCN3C)cc1C [Compound 482] | 2000 to 5000 nM |
| CC(C)CCOc1ccc(C(=O)N2CCC3(CC2)NCC(C)n2c(C(=O)C(F)(F)F)ccc23)cc1 (stereo not shown) [Compound 284] | ≤ 2000 nM |
| COc1cc(C(=O)N2CC[C@@]3(c4ccc(C(F)(F)F)n4CCN3C)[C@H](F)C2)ccc1OC(C)C [Compound 88] | 2000 to 5000 nM |
| COc1ccc(C(=O)N2CCC3(CC2)c2ccc(C(=O)C(F)(F)F)n2C(C)CN3C)cc1C(F)(F)F (stereo not shown) [Compound 240] | ≤ 2000 nM |
| CC(C)Oc1ccc(C(=O)N2CCC3(CC2)NC(C)(C)Cn2c(C(F)(F)F)ccc23)cc1F [Compound 655] | ≤ 2000 nM |
